The assay concerns Cortical neurone. Kind of assay: Induction of dendrite extension in rat cortical neurons assessed as inhibition of amyloid beta (25 to 35)-induced neuronal degeneration at 1 uM after 4 days by fluorescence microscopic analysis. Type of assay: functional.

The source made the active and inactive calls. No cut-off for these calls is given here.

Turning to `CCCCCCCCCCCCC/C=C\CCCCCCCCCCCCCCCCCCCCCCO`, the outcome was Active.

For the molecule `CCCCCCCCCC/C=C\C/C=C\CCCCCCCCCCCCCCCCCCCCCC(=O)O`, the result was Active.

Turning to `CCCCCCCCCCCCCCCCCCCCCCCCCCCCCCCCCCCCC(=O)O`, the outcome was Active.

`CCCCC/C=C\CCCCCC/C=C\CCCCCCCCCCCCCCCCCCCCCC(=O)O`: the result was Active.

As to `CCCCCCCCCCCCCCCCCCCCCC(=O)O`, the outcome was Active.

In the case of `CCCCCCCCCCCCC/C=C\CCCCCCCCCCCCCO`, the result was Active.

For the molecule `CCCCCCCCCCCCC/C=C\CCCCCCCCCCCCC(=O)O`, the outcome was Active.

For `CC/C=C\CCCCCCCCC/C=C\CCCCCCCCCCC(=O)O`, the result was Active.

For the molecule `CCCCCCCCCC/C=C\CCCCCCCCCC(=O)O`, the result was Active.

For the molecule `CC/C=C\CCCCCCCCC/C=C\CCCCCCCCCCCCCCCCCCCCCC(=O)O`, the outcome was Active.

On to `CC/C=C\CCCCCCCCC/C=C\CCCCCCCC(=O)O`, for which the outcome was Active.

Regarding `CC/C=C\CCCCCCCCC/C=C\CCC(=O)O`, the result was Active.

With `CC/C=C\CCCCCCCCC/C=C\CCCCCCCCCCCCCCCCCCCCCCCCCCCCCC(=O)O`, the outcome was Active.

For `CCCCCCC/C=C\CCCC/C=C\CCCCCCCCCCCCCCCCCCCCCC(=O)O`, the outcome was Active.

`CCCCCCCCCCCCCCCCC/C=C\CCCCCCCCCCCCCCCCCCCCCC(=O)O`: the outcome was Active.

In the case of `CCCCCCCCCCCCCCCCCCCCCCCCCCCC(=O)O`, the result was Active.

Turning to `CCCCCCCCCCCCC/C=C\CCCCCCCCCCCCCCCCCCCCCC(=O)O`, the outcome was Active.

For the origin of these results see ChEMBL document CHEMBL3102855, “Synthesis of long-chain fatty acid derivatives as a novel anti-Alzheimer's agent” (Bioorg Med Chem Lett, 2014).
